Data reported in ChEMBL document CHEMBL3991943, “Pharmaceutical formulations comprising salts of a protein kinase inhibitor and methods of using same” (2013).
Calls of active or inactive are those of the source. No cut-off for these calls is given here.

Key:
[1] = target: Mast/stem cell growth factor receptor Kit (Homo sapiens) (UniProt P10721); assay: Inhibition of c-Kit in human PANC1 cells assessed as reduction in Erk phosphorylation at 50 uM; format: cell-based
A549 [2] = assay: Antitumor activity against human A549 cells xenografted in athymic nude mouse assessed as reduction in tumor growth at 50 mg/kg, po qd administered for 21 days in presence of 30 mg/kg carboplatin/ 20 mg/kg taxol; format: functional, organism-based
SF-767 [3] = assay: Cytotoxicity against human SF-767 cells assessed as cell death at 1 uM in presence of […] ionizing radiation after 24 hrs by MTS assay; format: functional, cell-based
OVCAR-3 [4] = assay: Antitumor activity against human OVCAR3 cells xenografted in po dosed athymic nude mouse assessed as reduction in tumor growth administered as qd for 28 days; format: functional, organism-based
OVCAR-3 [5] = assay: Cytostatic activity against human OVCAR3 cells assessed as reduction in cell proliferation; format: functional, cell-based
A549 [6] = assay: Antitumor activity against human A549 cells xenografted in athymic nude mouse assessed as reduction in tumor growth at 50 mg/kg, po qd administered for 21 days in presence of 30 mg/kg carboplatin; format: functional, organism-based
MIA PaCa-2 [7] = assay: Antitumor activity against human MIAPaCa2 cells xenografted in athymic nude mouse assessed as reduction in tumor growth at 2.5 to 5 mg/kg, iv administered every 3 days for 28 days; format: functional, organism-based
MIA PaCa-2 [8] = assay: Antitumor activity against human MIAPaCa2 cells xenografted in athymic nude mouse assessed as reduction in tumor growth at 5 mg/kg, iv administered every 7 days for 28 days; format: functional, organism-based
TT = assay: Antitumor activity against human TT cells xenografted in ip dosed athymic nude mouse assessed as reduction in tumor growth administered as qd for 2 weeks; format: functional, organism-based
HT-29 [9] = assay: Suppression of cisplatin-induced Rad51 expression in human HT-29 cells xenografted in in-vivo model by Western blot analysis; format: functional, cell-based
HT-29 [10] = assay: Suppression of ionizing radiation-induced Rad51 expression in human HT-29 cells pretreated with compound followed by ionizing radiation by Western blot analysis; format: functional, cell-based
SBcl2 = assay: Antitumor activity against human SBcl2 cells xenografted in ip dosed athymic nude mouse assessed as reduction in tumor growth administered as qd for 5 days; format: functional, organism-based
A549 [11] = assay: Suppression of Rad51 expression in human A549 cells at 0.71 to 3.82 uM after 24 hrs by probing blot analysis; format: functional, cell-based
Canis familiaris = assay: In vivo inhibition of Rad51 expression in po dosed Beagle dog skin administered daily for 28 days measured post last dose by immunohistochemistry staining based assay; format: functional, organism-based; details: Canis lupus familiaris
SF-767 [12] = assay: Cytotoxicity against human SF-767 cells assessed as cell death at 1 uM after 24 hrs by MTS assay; format: functional, cell-based

Chain of Mast/stem cell growth factor receptor Kit (Homo sapiens) (P10721 whole entry): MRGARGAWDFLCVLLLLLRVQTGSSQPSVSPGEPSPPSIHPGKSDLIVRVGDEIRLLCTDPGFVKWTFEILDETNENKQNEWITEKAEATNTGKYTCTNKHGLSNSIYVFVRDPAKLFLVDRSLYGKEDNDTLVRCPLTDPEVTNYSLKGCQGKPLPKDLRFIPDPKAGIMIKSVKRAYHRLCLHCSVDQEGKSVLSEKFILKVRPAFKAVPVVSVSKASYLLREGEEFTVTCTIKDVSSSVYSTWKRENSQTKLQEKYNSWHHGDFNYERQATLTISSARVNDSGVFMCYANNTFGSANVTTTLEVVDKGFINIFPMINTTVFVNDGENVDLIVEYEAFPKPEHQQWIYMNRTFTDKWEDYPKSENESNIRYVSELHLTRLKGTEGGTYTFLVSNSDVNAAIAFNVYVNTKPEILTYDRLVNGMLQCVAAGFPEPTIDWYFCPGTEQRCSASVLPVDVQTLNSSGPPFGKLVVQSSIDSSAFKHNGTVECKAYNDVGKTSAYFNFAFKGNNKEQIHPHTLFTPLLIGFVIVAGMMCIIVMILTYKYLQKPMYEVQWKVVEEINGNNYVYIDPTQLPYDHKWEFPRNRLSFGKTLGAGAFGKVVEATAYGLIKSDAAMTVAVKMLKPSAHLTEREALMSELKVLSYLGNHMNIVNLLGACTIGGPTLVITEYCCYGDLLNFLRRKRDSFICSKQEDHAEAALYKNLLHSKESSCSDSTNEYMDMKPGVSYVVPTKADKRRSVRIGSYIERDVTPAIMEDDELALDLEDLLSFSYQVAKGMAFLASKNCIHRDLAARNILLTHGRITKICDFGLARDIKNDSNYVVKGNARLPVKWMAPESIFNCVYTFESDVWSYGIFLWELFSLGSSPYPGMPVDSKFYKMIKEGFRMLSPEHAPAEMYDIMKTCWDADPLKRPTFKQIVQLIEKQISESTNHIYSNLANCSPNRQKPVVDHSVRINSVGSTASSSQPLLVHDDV

SMILES	inhibition [1]	Activity (A549 [2])	Activity (SF-767 [3])	Activity (OVCAR-3 [4])	Activity (OVCAR-3 [5])	Activity (A549 [6])	Activity (MIA PaCa-2 [7])	Activity (MIA PaCa-2 [8])	Activity (TT)	inhibition (HT-29 [9])	inhibition (HT-29 [10])	Activity (SBcl2)	Activity (A549 [11])	inhibition (Canis familiaris)	Activity (SF-767 [12])
COc1cccc(-c2cc(=O)c3ccccc3o2)c1N	Active	–	–	–	–	–	–	–	–	–	–	–	–	–	–
S=C(NCc1ccc2c(c1)OCO2)N1CCN(c2ncnc3c2oc2ccccc23)CC1	Active	Active	Active	Dose-dependent effect	Active	Active	Active	Active	Dose-dependent effect	Active	Active	Active	inactive	Dose-dependent effect	Active
